Data on 13 compounds can be found in PMC12040169 (PLOS Biology, 2025).

For data set [1], the system named is T1, CTL2-GFP (C. trachomatis L2/434/Bu, GFP-expressing).
T1 construct: L2/434/Bu, GFP-expressing
Kind of data set: microbe, parasite or virus in culture. Particulars: Chlamydia trachomatis, HeLa, 28.5 h; bulk GFP, mean of 2; read-out: % of control remaining. Also noted: Intracellular C. trachomatis growth in HeLa cells, bulk GFP fluorescence relative to DMSO. The procedure:
MICs were calculated as described above.

Data set [2] is described as follows: in vitro. Also noted: Viability of infected HeLa host cells, resazurin conversion, bulk resorufin fluorescence relative to DMSO. Particulars: human, hela cells; bulk resorufin, mean of 2.
Data set [3] deals with T2, C. trachomatis L2/434/Bu expressing GFP (CTL2-GFP).
T2 construct: L2/434/Bu GFP intracellular growth in HeLa cells
Kind of data set: microbe, parasite or virus in culture. Also noted: C. trachomatis total inclusion area by high-content imaging, normalised to DMSO. Particulars: Chlamydia trachomatis, HeLa, 28.5 h; total inclusion area; read-out: % of control remaining. Summed up: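 A 36,785-compound library was screened using bulk GFP and resorufin fluorescence, followed by Hoechst staining and high-content imaging of inclusions (GFP) and host nuclei. Inclusion area and number served as growth proxies and nuclei counts as a viability proxy. MICs were calculated from these readouts.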

Data set [4] is described as follows: in vitro. Particulars: human, hela cells, % viability.

Take `COc1ccc(C=CC(=O)Nc2sc3c(c2C(=O)O)CCCC3)cc1OC` [CBK296103]: in data set [1], the activity at 1 µM turned out to be 118%, the activity at 5 µM came to 85.9% and the activity at 10 µM stood at 27.4%. Also, in “in vitro [2]”, the viability at 28.5 h, 1 µM was determined as 91.1%; the viability at 28.5 h, 5 µM stood at 87.4%; the viability at 28.5 h, 10 µM amounted to 89.7%. In data set [3], the activity at 1 µM was found to be 117%, the activity at 5 µM was 69.8% and the activity at 10 µM amounted to 22.5%. For the same compound, the viability at 28.5 h, 10 µM in the data set “in vitro [4]” was found to be 117%.
Turning to `COc1ccc(N2CCN(C(=O)c3ccc([N+](=O)[O-])o3)CC2)cc1` [CBK091410], in data set [1], the activity at 1 µM amounted to 106%, the activity at 5 µM came out at 55.2% and the activity at 10 µM turned out to be 16%. In the data set “in vitro [2]”, the viability at 28.5 h, 1 µM was found to be 106%; the viability at 28.5 h, 5 µM is 110%; the viability at 28.5 h, 10 µM worked out at 125%. Further, in data set [3], the activity at 1 µM worked out at 128%, the activity at 5 µM stood at 64.3% and the activity at 10 µM stood at 20.7%. Further, in “in vitro [4]”, the viability at 28.5 h, 10 µM was 105%.
With `CCc1nnc(NS(=O)(=O)c2ccc(NC(=O)COc3ccc(Cl)cc3Cl)cc2)s1` [CBK200050], in data set [1], the activity at 1 µM worked out at 112%, the activity at 5 µM came to 48.5% and the activity at 10 µM stood at 22.1%. Further, in “in vitro [2]”, the viability at 28.5 h, 1 µM was found to be 104%; the viability at 28.5 h, 5 µM was 96.7%; the viability at 28.5 h, 10 µM came to 98.4%. Besides, in data set [3], the activity at 1 µM is 99.2%, the activity at 5 µM turned out to be 67% and the activity at 10 µM is 37.8%. Further, the viability at 28.5 h, 10 µM in the data set “in vitro [4]” came out at 108%.
`Cc1cc2cc(C(=O)N3CCC(c4c(C(=O)NC(C)C)sc5ccccc45)C3)ccc2o1` (stereo not shown) [CBK285873]: in data set [1], the activity at 1 µM amounted to 148%, the activity at 5 µM amounted to 48.7% and the activity at 10 µM worked out at 31.6%. For the same compound, in the data set “in vitro [2]”, the viability at 28.5 h, 1 µM came out at 90%; the viability at 28.5 h, 5 µM turned out to be 97.6%; the viability at 28.5 h, 10 µM stood at 96.2%. Moreover, in data set [3], the activity at 1 µM is 150%, the activity at 5 µM worked out at 85.1% and the activity at 10 µM was determined as 51.5%. The viability at 28.5 h, 10 µM in the data set “in vitro [4]” turned out to be 87.1%.
`COC(=O)N1CCc2ccc(N3C[C@H](CNC(C)=O)OC3=O)cc2CC1` [CBK022485]: in data set [1], the activity at 1 µM worked out at 136%, the activity at 5 µM amounted to 44.2% and the activity at 10 µM amounted to 12.6%. Also, in the data set “in vitro [2]”, the viability at 28.5 h, 1 µM came out at 88.3%; the viability at 28.5 h, 5 µM was 85.8%; the viability at 28.5 h, 10 µM was found to be 90.5%. For the same compound, in data set [3], the activity at 1 µM is 128%, the activity at 5 µM was found to be 35.2% and the activity at 10 µM stood at 7.61%. Moreover, the viability at 28.5 h, 10 µM in the data set “in vitro [4]” was determined as 79.8%.
In the case of `Clc1ccc2nc(-c3ccccn3)[nH]c2c1` [CBK000116], in data set [1], the activity at 1 µM amounted to 75%, the activity at 5 µM was 13.8% and the activity at 10 µM turned out to be 1.74%. In the data set “in vitro [2]”, the viability at 28.5 h, 1 µM is 111%; the viability at 28.5 h, 5 µM came out at 104%; the viability at 28.5 h, 10 µM was found to be 104%. In data set [3], the activity at 1 µM is 70.7%, the activity at 5 µM amounted to 9.19% and the activity at 10 µM was determined as 1.69%. Moreover, in the data set “in vitro [4]”, the viability at 28.5 h, 10 µM was found to be 83.8%.
For `Nc1cccc2c(OCCO)cccc12` [CBK001976C], in data set [1], the activity at 1 µM amounted to 92.4%, the activity at 5 µM turned out to be 76.5% and the activity at 10 µM was 45.6%. Further, in “in vitro [2]”, the viability at 28.5 h, 1 µM came out at 92.9%; the viability at 28.5 h, 5 µM was 89%; the viability at 28.5 h, 10 µM was 85.7%. Moreover, in data set [3], the activity at 1 µM amounted to 82.7%, the activity at 5 µM was found to be 72.9% and the activity at 10 µM was 30.7%. In addition, the viability at 28.5 h, 10 µM in “in vitro [4]” amounted to 91.8%.
As for `Cc1ccc2nsnc2c1S(=O)(=O)Nc1cccc2cccnc12` [CBK267051], in data set [1], the activity at 1 µM was determined as 108%, the activity at 5 µM amounted to 79.7% and the activity at 10 µM was found to be 47.8%. Also, in the data set “in vitro [2]”, the viability at 28.5 h, 1 µM is 76.3%; the viability at 28.5 h, 5 µM stood at 60.6%; the viability at 28.5 h, 10 µM was determined as 60.9%. Further, in data set [3], the activity at 1 µM was 87.7%, the activity at 5 µM was 88.5% and the activity at 10 µM is 34.4%. In addition, the viability at 28.5 h, 10 µM in the data set “in vitro [4]” worked out at 46.9%.
Regarding `O=C(N/N=C/c1ccc(Sc2cccc3cccnc23)o1)c1cccc(F)c1` [CBK263263], in data set [1], the activity at 1 µM amounted to 12%, the activity at 5 µM is 3.14% and the activity at 10 µM came to 0%. In “in vitro [2]”, the viability at 28.5 h, 1 µM came to 101%; the viability at 28.5 h, 5 µM stood at 99.9%; the viability at 28.5 h, 10 µM was determined as 108%. Further, in data set [3], the activity at 1 µM was found to be 21%, the activity at 5 µM was determined as 4.03% and the activity at 10 µM was 0.368%. The viability at 28.5 h, 10 µM in the data set “in vitro [4]” was 87.9%.
For `Cc1cccc(Nc2nc(C)cc3n[nH]c(=O)n23)c1` [CBK288477], in data set [1], the activity at 1 µM stood at 134%, the activity at 5 µM was determined as 57.5% and the activity at 10 µM was 29.6%. Also, in “in vitro [2]”, the viability at 28.5 h, 1 µM worked out at 102%; the viability at 28.5 h, 5 µM was 104%; the viability at 28.5 h, 10 µM came to 81.5%. Moreover, in data set [3], the activity at 1 µM stood at 74.4%, the activity at 5 µM amounted to 33.7% and the activity at 10 µM stood at 17.7%. For the same compound, in “in vitro [4]”, the viability at 28.5 h, 10 µM turned out to be 89.2%.
For the compound `Cc1ccc(NC(=O)n2ccc3c(N4CCNCC4)cccc32)cc1[N+](=O)[O-]` [CBK003747C], in data set [1], the activity at 1 µM came out at 105%, the activity at 5 µM was found to be 78.4% and the activity at 10 µM worked out at 44.4%. In the data set “in vitro [2]”, the viability at 28.5 h, 1 µM was determined as 89.8%; the viability at 28.5 h, 5 µM was determined as 85.5%; the viability at 28.5 h, 10 µM amounted to 76.7%. For the same compound, in data set [3], the activity at 1 µM was found to be 75.6%, the activity at 5 µM turned out to be 59.3% and the activity at 10 µM is 30.3%. Moreover, the viability at 28.5 h, 10 µM in “in vitro [4]” is 81.4%.
For `COc1cccc(C(=O)N2CCC(Cc3ccc(-c4cccc(C)c4)cc3)(C(N)=O)CC2)c1` [CBK285779], in data set [1], the activity at 1 µM amounted to 119%, the activity at 5 µM is 104% and the activity at 10 µM is 49.9%. Further, in the data set “in vitro [2]”, the viability at 28.5 h, 1 µM is 96.4%; the viability at 28.5 h, 5 µM worked out at 98.8%; the viability at 28.5 h, 10 µM was found to be 90.2%. Besides, in data set [3], the activity at 1 µM is 113%, the activity at 5 µM turned out to be 114% and the activity at 10 µM came to 62.9%. Moreover, the viability at 28.5 h, 10 µM in the data set “in vitro [4]” was determined as 115%.
As to `CC(NC(=O)N(Cc1ccccc1C(F)(F)F)CC(C)(C)CN)c1cccc2ccccc12` (stereo not shown) [CBK002422C], in data set [1], the activity at 1 µM was 112%, the activity at 5 µM was 51.5% and the activity at 10 µM amounted to 34.5%. Also, in the data set “in vitro [2]”, the viability at 28.5 h, 1 µM was determined as 90.1%; the viability at 28.5 h, 5 µM was determined as 94.1%; the viability at 28.5 h, 10 µM stood at 101%. For the same compound, in data set [3], the activity at 1 µM is 78.4%, the activity at 5 µM is 41% and the activity at 10 µM worked out at 12.2%. For the same compound, the viability at 28.5 h, 10 µM in “in vitro [4]” was determined as 91.9%.
